Laboratory results reported in ChEMBL document CHEMBL5131515, “Identification of Pyridinyltriazine Derivatives as Potent panFGFR Inhibitors against Gatekeeper Mutants for Overcoming Drug Resistance” (J Med Chem, 2022).

Key:
BaF3 [1] = experiment: Antiproliferative activity against mouse BaF3 cells harboring TEL-FGFR4 V550E mutant assessed as cell growth inhibition by CellTiter-Glo assay; type: functional
J82 = experiment: Antiproliferative activity against human J82 cells harboring FGFR3 K652E mutant assessed as cell growth inhibition by CellTiter-Glo assay; type: functional
BaF3 [2] = experiment: cells; type: functional; details: Mus musculus
BaF3 [3] = experiment: Antiproliferative activity against mouse BaF3 cells harboring TEL-FGFR3 assessed as cell growth inhibition by CellTiter-Glo assay; type: functional
KMS-11 = experiment: Antiproliferative activity against human KMS-11 cells harboring FGFR3 Y373C mutant assessed as cell growth inhibition by CellTiter-Glo assay; type: functional
AN3-CA = experiment: Antiproliferative activity against human AN3-CA cells harboring FGFR2 K310R/N549K mutant assessed as cell growth inhibition by CellTiter-Glo assay; type: functional
[4] = Antiproliferative activity against mouse BaF3 cells assessed as cell growth inhibition by CellTiter-Glo assay
BaF3 [5] = experiment: Antiproliferative activity against mouse BaF3 cells harboring TEL-FGFR4 N535K mutant assessed as cell growth inhibition by CellTiter-Glo assay; type: functional
[6] = target: Fibroblast growth factor receptor 2 (Homo sapiens, UniProt P21802, N549H)
[7] = test system: Fibroblast growth factor receptor 2 (Homo sapiens), P21802 [V564F]; experiment: Inhibition of FGFR2 V564F mutant (unknown origin) at 10 uM by radiometric kinase activity assay relative to control
[8] = test system: Fibroblast growth factor receptor 3 (Homo sapiens), P22607 [V555M]; experiment: Inhibition of FGFR3 V555M mutant (unknown origin) at 10 uM by radiometric kinase activity assay relative to control
[9] = target: Fibroblast growth factor receptor 3 (Homo sapiens, UniProt P22607); experiment: Inhibition of wild-type FGFR3 (unknown origin) by radiometric kinase activity assay
[10] = target: Fibroblast growth factor receptor 4 (Homo sapiens, UniProt P22455); experiment: Inhibition of wild-type FGFR4 (unknown origin) by radiometric kinase activity assay
[11] = target: Fibroblast growth factor receptor 3 (Homo sapiens, UniProt P22607, K650E)
[12] = target: Fibroblast growth factor receptor 3 (Homo sapiens, UniProt P22607, V555M)
[13] = target: Fibroblast growth factor receptor 2 (Homo sapiens, UniProt P21802); experiment: Inhibition of wild-type FGFR2 (unknown origin) by radiometric kinase activity assay
[14] = target: Fibroblast growth factor receptor 2 (Homo sapiens, UniProt P21802, V564F)
Description: Inhibition of FGFR2 V564F mutant (unknown origin) by radiometric kinase activity assay

[15] = target: Fibroblast growth factor receptor 3 (Homo sapiens, UniProt P22607, K650M)
Fibroblast growth factor receptor 3 (Homo sapiens, UniProt P22607, K650M), sequence (P22607 23-806 K650M limits assumed): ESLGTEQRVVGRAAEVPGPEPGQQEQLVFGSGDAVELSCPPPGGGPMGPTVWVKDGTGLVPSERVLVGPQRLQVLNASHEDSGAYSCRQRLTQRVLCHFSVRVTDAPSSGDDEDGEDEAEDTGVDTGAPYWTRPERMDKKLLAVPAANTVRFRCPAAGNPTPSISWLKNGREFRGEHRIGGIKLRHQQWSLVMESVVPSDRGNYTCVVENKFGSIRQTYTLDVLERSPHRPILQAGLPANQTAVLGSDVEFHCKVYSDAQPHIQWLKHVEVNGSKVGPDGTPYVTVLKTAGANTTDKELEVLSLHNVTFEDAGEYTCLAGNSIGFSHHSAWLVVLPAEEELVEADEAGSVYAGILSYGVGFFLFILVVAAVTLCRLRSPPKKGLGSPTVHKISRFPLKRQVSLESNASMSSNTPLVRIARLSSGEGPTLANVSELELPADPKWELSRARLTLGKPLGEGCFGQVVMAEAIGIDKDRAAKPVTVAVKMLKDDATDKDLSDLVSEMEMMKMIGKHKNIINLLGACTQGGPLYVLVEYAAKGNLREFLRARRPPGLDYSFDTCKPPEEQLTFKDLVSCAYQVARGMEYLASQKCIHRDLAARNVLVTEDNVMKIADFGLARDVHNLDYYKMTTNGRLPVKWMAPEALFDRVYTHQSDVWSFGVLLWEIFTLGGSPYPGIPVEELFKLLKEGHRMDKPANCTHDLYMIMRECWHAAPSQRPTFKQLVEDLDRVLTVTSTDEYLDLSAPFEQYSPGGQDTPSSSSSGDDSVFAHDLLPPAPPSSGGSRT

Fibroblast growth factor receptor 2 (Homo sapiens, UniProt P21802, N549H), sequence (P21802 22-821 N549H limits assumed): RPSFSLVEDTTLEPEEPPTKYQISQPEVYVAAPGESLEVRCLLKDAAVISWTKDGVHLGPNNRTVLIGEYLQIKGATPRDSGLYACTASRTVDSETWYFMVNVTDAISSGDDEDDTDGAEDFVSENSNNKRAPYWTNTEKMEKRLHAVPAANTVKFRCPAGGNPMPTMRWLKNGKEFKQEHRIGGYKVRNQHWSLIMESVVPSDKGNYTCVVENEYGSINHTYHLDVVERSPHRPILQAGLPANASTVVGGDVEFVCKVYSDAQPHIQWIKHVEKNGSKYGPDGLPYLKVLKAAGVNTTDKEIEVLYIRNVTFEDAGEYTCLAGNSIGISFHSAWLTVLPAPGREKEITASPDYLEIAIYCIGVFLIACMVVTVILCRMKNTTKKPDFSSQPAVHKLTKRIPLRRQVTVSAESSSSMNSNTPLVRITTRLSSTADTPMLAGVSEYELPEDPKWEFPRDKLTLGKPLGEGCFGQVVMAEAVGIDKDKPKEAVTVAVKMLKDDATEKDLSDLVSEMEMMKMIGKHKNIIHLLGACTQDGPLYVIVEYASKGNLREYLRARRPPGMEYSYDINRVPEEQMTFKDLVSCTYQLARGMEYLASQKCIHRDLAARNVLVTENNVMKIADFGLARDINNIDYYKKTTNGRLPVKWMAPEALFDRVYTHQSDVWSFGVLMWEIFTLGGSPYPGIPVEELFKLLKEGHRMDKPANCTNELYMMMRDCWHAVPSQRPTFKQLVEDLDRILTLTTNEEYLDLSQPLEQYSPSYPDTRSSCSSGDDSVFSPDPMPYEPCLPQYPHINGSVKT
Fibroblast growth factor receptor 2 (Homo sapiens, UniProt P21802, V564F), sequence (P21802 22-821 V564F limits assumed): as the sequence (P21802 22-821 N549H limits assumed) above, with H528N, V543F counted along it
Fibroblast growth factor receptor 3 (Homo sapiens, UniProt P22607), sequence (P22607 whole entry): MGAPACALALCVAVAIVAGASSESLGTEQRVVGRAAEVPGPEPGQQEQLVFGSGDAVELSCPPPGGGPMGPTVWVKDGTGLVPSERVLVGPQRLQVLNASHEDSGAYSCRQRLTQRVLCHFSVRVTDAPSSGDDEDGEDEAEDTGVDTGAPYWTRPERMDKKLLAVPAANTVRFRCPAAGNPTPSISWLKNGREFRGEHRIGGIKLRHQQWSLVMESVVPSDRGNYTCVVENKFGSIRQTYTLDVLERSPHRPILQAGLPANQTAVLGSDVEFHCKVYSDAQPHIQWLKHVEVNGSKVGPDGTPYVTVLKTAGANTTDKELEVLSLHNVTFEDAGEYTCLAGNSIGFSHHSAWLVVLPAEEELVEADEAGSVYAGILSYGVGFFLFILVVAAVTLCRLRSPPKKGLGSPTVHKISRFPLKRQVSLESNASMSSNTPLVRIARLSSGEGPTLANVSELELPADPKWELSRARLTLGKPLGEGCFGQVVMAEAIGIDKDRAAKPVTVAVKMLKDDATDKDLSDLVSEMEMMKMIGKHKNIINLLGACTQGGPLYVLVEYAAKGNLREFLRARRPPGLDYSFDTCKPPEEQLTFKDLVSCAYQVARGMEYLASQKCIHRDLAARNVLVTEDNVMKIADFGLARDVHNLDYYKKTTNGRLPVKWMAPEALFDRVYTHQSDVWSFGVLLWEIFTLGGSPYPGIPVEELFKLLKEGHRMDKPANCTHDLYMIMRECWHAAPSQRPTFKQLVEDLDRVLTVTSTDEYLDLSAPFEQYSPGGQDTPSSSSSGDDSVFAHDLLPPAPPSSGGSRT
Fibroblast growth factor receptor 2 (Homo sapiens), P21802 [V564F], sequence (P21802 whole entry V564F): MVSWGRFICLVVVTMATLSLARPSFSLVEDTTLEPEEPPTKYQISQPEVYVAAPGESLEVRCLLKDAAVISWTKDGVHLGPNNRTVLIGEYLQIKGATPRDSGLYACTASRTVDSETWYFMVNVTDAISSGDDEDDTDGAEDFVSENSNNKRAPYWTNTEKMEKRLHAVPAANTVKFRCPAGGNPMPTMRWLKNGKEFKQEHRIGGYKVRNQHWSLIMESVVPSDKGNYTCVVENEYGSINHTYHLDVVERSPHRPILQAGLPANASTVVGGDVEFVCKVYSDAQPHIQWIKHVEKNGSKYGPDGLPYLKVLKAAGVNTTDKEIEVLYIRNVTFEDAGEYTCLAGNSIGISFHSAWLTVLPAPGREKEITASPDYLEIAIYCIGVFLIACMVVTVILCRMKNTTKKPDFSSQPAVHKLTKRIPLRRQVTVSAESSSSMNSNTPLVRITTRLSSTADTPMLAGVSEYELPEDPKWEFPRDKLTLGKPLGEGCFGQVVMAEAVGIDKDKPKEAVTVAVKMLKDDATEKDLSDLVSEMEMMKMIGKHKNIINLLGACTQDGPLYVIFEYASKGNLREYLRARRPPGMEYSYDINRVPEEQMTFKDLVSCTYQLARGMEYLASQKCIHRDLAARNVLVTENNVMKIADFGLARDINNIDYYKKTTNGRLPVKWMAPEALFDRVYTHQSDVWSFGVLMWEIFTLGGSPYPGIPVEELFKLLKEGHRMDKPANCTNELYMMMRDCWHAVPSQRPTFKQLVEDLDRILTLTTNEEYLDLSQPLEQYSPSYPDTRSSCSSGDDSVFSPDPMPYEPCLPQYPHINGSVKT
Fibroblast growth factor receptor 3 (Homo sapiens), P22607 [V555M], sequence (P22607 whole entry V555M): as the sequence (P22607 whole entry) above, with V555M counted along it
Fibroblast growth factor receptor 3 (Homo sapiens, UniProt P22607, V555M), sequence (P22607 23-806 V555M limits assumed): as the sequence (P22607 23-806 K650M limits assumed) above, with V533M, M628K counted along it
Fibroblast growth factor receptor 3 (Homo sapiens, UniProt P22607, K650E), sequence (P22607 23-806 K650E limits assumed): as the sequence (P22607 23-806 K650M limits assumed) above, with M628E counted along it
Fibroblast growth factor receptor 2 (Homo sapiens, UniProt P21802), sequence (P21802 whole entry): as the sequence (P21802 whole entry V564F) above, with F564V counted along it
Fibroblast growth factor receptor 4, sequence (P22455 whole entry): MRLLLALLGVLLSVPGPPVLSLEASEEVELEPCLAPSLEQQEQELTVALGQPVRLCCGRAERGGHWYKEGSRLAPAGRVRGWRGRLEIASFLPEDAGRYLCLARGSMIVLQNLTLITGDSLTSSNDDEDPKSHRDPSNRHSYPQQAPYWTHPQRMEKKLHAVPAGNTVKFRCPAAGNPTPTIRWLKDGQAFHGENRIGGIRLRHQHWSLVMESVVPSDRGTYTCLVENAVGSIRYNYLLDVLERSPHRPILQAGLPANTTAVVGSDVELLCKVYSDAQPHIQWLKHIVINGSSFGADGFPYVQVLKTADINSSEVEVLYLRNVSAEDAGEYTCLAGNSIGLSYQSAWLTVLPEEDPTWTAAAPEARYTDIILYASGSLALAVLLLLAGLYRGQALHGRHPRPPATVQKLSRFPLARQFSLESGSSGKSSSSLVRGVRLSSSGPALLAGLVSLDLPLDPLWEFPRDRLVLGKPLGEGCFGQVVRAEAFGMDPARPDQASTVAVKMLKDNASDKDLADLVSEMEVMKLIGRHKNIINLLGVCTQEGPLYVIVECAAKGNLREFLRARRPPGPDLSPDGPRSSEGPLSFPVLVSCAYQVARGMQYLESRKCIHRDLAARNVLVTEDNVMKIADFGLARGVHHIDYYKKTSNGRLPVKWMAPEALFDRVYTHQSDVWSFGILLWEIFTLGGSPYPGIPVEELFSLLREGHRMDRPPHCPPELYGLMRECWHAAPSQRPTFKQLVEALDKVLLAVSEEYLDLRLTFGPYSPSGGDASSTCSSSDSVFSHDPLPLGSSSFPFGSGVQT

| Structure (SMILES) | GI50 (BaF3 [1]) [nM] | GI50 (J82) [nM] | GI50 (BaF3 [2]) [nM] | GI50 (BaF3 [3]) [nM] | GI50 (KMS-11) [nM] | GI50 (AN3-CA) [nM] | GI50 ([4]; BaF3 cells) [nM] | GI50 (BaF3 [5]) [nM] | IC50 [6] [nM] | inhibition [7] [%] | inhibition [8] [%] | IC50 [9] [nM] | IC50 [10] [nM] | IC50 [11] [nM] | IC50 [12] [nM] | IC50 [13] [nM] | IC50 [14] [nM] | GI50 ([4]; baf3) [nM] | IC50 [15] [nM] |
| --- | --- | --- | --- | --- | --- | --- | --- | --- | --- | --- | --- | --- | --- | --- | --- | --- | --- | --- | --- |
| CCN1C(=O)N(c2c(F)c(OC)cc(OC)c2F)Cc2cnc3[nH]c(CN4CCOCC4)cc3c21 [PEMIGATINIB] | > 5000 | 4290 | 2070 | 5 | 232 | 132 | > 5000 | 4500 | – | – | – | – | – | – | – | – | – | – | – |
| COc1cc(OC)c(Cl)c(Nc2ncccc2-c2ncnc(N)n2)c1Cl | – | 6560 | > 5000 | 276 | 3270 | 753 | > 5000 | – | 31.4 | < 50 | < 50 | 11.2 | – | – | – | – | – | – | – |
| CCN1CCN(c2ccc(Nc3cc(-c4cccnc4Nc4c(Cl)c(OC)cc(OC)c4Cl)ncn3)cc2)CC1 | 3200 | 4290 | 2000 | 8 | 479 | 263 | 3250 | 3370 | 6.06 | – | – | 2.86 | 50.3 | 8.55 | 464 | 1.83 | – | – | – |
| COc1cccc(Nc2ncnc(-c3cccnc3Nc3c(Cl)c(OC)cc(OC)c3Cl)n2)c1 | – | 4880 | > 5000 | 30 | 895 | 202 | > 5000 | – | 6.36 | < 50 | < 50 | 9.81 | – | – | – | – | – | – | – |
| COc1cc(OC)c(Cl)c(Nc2ncccc2-c2ncnc(Nc3ccc(N4CCC(O)CC4)cc3)n2)c1Cl | – | 8250 | 3880 | 40 | 1270 | 117 | > 5000 | – | 6.05 | – | – | 8.29 | – | – | 1810 | – | 2160 | – | – |
| COc1cc(OC)c(Cl)c(Nc2ncccc2-c2ncnc(Nc3cnn(C)c3)n2)c1Cl | – | 2320 | 731 | 5 | 315 | 31 | > 5000 | – | < 0.5 | – | – | 2.41 | – | – | 163 | – | 2840 | – | – |
| C=CCn1cc(Nc2ncnc(-c3cccnc3Nc3c(Cl)c(OC)cc(OC)c3Cl)n2)cn1 | – | 991 | 1820 | 10 | 341 | 18800 | > 5000 | – | 26 | – | – | 1.41 | – | – | 1710 | – | 3090 | – | – |
| COc1cc(OC)c(Cl)c(Nc2ncccc2-c2ncnc(Nc3cnn(C4CCOCC4)c3)n2)c1Cl | – | 6230 | 3160 | 5 | 1380 | 105 | > 5000 | – | 13.8 | – | – | 2.51 | – | – | 1170 | – | 2770 | – | – |
| COc1cc(OC)c(Cl)c(Nc2ncccc2-c2ncnc(Nc3ccc(N4CCOCC4)cc3)n2)c1Cl | – | 22400 | > 5000 | 393 | 12200 | 1130 | > 5000 | – | 37.7 | < 50 | < 50 | 16 | – | – | – | – | – | – | – |
| COc1cc(N2CCN(C)CC2)ccc1Nc1ncnc(-c2cccnc2Nc2c(Cl)c(OC)cc(OC)c2Cl)n1 | – | 7260 | 2130 | 282 | 730 | 689 | 2790 | – | 75.3 | – | – | 20.3 | – | – | 7750 | – | 2640 | – | – |
| COc1cc(OC)c(Cl)c(Nc2ncccc2-c2ncnc(Nc3ccccc3)n2)c1Cl | – | 3620 | > 5000 | 16 | 1420 | 136 | > 5000 | – | 2.51 | < 50 | < 50 | 4.58 | – | – | – | – | – | – | – |
| COc1cc(OC)cc(N(CCNC(C)C)c2ccc3ncc(-c4cnn(C)c4)nc3c2)c1 [ERDAFITINIB] | > 5000 | 3800 | 761 | 5 | 390 | 48 | – | 4010 | – | – | – | – | – | – | – | – | – | > 5000 | – |
| COc1cc(OC)c(Cl)c(Nc2ncccc2-c2ncnc(Nc3ccc(N4CCN(C(C)=O)CC4)cc3)n2)c1Cl | – | 6010 | 3020 | 30 | 1500 | 63 | > 5000 | – | 4.49 | – | – | 8.05 | – | – | 1120 | – | 3010 | – | – |
| CCN1CCN(c2cccc(Nc3ncnc(-c4cccnc4Nc4c(Cl)c(OC)cc(OC)c4Cl)n3)c2)CC1 | 994 | 1110 | 686 | 18 | 190 | 85 | 3630 | 1690 | 0.6 | – | – | 0.58 | 101 | < 0.5 | 134 | < 0.5 | 578 | – | 44.3 |
| COc1cc(OC)c(Cl)c(Nc2ncccc2-c2ncnc(Nc3ccc(N(C)C)cc3)n2)c1Cl | – | 14800 | > 5000 | 164 | > 50000 | 591 | > 5000 | – | 14.7 | < 50 | < 50 | 15 | – | – | – | – | – | – | – |
| COc1cc(OC)c(Cl)c(Nc2ncccc2-c2ncnc(Nc3cnn(CCCN(C)C)c3)n2)c1Cl | – | 510 | 897 | 5 | 189 | 421 | 2730 | – | 3.96 | – | – | 1.19 | – | – | 319 | – | 1110 | – | – |
| COc1cc(OC)c(Cl)c(Nc2ncccc2-c2ncnc(NCCN(C)C)n2)c1Cl | – | 11200 | > 5000 | 4040 | 3570 | 1940 | > 5000 | – | 368 | < 50 | < 50 | 839 | – | – | – | – | – | – | – |
| COc1cc(N2C[C@@H](C)N[C@@H](C)C2)ccc1Nc1ncnc(-c2cccnc2Nc2c(Cl)c(OC)cc(OC)c2Cl)n1 | – | 3330 | 2710 | 286 | 872 | 818 | 2730 | – | 32.9 | – | < 50 | 23.9 | – | – | – | – | 3560 | – | – |
| COc1cc(OC)c(Cl)c(Nc2ncccc2-c2ncnc(Nc3ccc(N4CCOCC4)nc3)n2)c1Cl | – | 11500 | > 5000 | 664 | 2020 | 781 | > 5000 | – | 3.09 | < 50 | – | 8.62 | – | – | 4060 | – | – | – | – |
